Measured values reported in BindingDB's records for doi:10.1074/jbc.M109.038984 (Spanish National Cancer Research Center (Cnio), 2009).

Tests used:
Assay in all cases: Kinase Assay
[1] = molecular target: Phosphatidylinositol 4,5-bisphosphate 3-kinase catalytic subunit alpha isoform (Homo sapiens, UniProt P42336)
Source text: (§1) Kinase assay using PI3K.

[2] = molecular target: Phosphatidylinositol 4,5-bisphosphate 3-kinase catalytic subunit beta isoform (Homo sapiens, UniProt P42338)
Source text: as §1

[3] = molecular target: T1, Phosphatidylinositol 4,5-bisphosphate 3-kinase catalytic subunit delta isoform (Homo sapiens, UniProt O00329)
T1 sequence (O00329 whole entry): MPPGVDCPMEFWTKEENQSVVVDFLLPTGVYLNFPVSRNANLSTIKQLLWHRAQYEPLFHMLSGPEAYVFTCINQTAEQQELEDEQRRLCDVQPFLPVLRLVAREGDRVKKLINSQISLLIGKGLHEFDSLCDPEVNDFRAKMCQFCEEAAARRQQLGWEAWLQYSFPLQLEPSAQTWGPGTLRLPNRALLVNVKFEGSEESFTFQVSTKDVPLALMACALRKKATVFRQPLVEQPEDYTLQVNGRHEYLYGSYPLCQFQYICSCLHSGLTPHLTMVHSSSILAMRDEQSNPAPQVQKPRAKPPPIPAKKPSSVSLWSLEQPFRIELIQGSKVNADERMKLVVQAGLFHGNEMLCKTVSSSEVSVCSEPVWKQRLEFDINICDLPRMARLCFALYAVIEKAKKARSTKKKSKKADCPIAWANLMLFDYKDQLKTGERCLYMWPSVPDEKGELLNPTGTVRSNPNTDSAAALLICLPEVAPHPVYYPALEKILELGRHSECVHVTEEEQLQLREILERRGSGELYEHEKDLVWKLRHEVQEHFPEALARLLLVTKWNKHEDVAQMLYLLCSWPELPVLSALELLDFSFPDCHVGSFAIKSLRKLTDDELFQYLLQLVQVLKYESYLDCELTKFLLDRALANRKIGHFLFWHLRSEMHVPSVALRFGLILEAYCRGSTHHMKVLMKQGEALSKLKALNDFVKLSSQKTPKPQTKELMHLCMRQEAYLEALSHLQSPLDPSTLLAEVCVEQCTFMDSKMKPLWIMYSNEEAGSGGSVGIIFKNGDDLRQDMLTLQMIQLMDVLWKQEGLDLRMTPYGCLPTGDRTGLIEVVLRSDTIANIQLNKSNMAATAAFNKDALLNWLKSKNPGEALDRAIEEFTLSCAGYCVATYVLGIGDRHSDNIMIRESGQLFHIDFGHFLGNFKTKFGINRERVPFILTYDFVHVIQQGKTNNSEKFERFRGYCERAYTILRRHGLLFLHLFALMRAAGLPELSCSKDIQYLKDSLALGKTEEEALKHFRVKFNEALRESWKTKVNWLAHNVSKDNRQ
Source text: as §1

[4] = molecular target: Phosphatidylinositol 4,5-bisphosphate 3-kinase catalytic subunit gamma isoform (Homo sapiens, UniProt P48736)
Source text: as §1

Phosphatidylinositol 4,5-bisphosphate 3-kinase catalytic subunit alpha isoform, sequence (P42336 whole entry, canonical isoform): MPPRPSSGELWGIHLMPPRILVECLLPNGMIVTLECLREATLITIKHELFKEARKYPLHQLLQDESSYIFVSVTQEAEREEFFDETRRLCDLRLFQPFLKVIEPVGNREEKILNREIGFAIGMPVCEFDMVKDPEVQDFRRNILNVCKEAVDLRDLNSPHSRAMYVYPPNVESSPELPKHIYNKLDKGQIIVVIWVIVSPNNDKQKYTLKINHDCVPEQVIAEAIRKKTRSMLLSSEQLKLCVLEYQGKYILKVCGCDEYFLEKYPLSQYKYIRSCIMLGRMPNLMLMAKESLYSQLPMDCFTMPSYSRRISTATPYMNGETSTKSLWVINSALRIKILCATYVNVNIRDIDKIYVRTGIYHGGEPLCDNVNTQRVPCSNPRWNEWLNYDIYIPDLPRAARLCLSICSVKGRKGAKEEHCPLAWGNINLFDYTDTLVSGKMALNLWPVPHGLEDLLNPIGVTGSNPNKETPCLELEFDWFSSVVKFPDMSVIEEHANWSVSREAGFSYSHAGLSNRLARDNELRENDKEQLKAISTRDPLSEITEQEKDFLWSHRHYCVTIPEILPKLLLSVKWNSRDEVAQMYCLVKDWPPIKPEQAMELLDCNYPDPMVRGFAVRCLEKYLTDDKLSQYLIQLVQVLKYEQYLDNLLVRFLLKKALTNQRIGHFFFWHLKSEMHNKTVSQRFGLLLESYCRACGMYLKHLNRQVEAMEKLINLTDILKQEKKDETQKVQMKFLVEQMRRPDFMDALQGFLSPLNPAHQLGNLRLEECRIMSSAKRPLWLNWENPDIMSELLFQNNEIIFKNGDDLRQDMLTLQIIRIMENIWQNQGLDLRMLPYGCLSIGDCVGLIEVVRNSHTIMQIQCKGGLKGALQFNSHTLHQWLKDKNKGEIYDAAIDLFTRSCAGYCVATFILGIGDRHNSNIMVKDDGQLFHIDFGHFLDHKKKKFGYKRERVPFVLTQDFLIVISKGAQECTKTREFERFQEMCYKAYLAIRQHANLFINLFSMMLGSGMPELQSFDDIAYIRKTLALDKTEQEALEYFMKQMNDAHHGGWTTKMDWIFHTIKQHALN
Phosphatidylinositol 4,5-bisphosphate 3-kinase catalytic subunit gamma isoform, sequence (P48736 whole entry, canonical isoform): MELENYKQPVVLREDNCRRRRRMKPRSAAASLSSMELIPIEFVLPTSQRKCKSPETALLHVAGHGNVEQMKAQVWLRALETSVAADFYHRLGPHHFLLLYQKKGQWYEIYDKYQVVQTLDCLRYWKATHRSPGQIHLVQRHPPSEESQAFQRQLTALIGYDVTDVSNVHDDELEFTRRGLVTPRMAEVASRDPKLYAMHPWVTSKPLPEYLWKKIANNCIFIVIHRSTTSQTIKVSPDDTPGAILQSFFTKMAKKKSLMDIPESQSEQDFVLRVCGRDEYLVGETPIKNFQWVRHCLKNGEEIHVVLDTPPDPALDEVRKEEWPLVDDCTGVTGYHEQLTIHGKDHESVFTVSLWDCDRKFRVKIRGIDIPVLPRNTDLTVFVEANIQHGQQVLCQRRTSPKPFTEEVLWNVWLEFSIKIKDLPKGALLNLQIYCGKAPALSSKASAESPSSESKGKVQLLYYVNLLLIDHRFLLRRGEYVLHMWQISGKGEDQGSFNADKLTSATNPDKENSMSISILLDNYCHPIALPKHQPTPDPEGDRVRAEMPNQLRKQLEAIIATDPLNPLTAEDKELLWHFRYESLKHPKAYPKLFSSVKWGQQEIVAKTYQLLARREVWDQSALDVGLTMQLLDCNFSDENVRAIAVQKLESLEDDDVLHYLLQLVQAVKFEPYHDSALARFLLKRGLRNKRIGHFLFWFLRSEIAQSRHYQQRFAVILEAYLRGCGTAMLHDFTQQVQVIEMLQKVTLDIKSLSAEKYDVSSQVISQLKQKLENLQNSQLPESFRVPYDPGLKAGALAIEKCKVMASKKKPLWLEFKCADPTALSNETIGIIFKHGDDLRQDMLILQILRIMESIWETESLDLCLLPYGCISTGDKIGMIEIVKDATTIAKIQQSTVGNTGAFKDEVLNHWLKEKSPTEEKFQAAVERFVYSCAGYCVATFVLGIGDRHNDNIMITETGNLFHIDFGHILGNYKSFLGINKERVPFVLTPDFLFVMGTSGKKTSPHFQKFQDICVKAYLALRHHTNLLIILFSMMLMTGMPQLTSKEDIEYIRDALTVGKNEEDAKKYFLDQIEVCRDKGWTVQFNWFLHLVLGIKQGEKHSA
Phosphatidylinositol 4,5-bisphosphate 3-kinase catalytic subunit beta isoform, sequence (P42338 whole entry, canonical isoform): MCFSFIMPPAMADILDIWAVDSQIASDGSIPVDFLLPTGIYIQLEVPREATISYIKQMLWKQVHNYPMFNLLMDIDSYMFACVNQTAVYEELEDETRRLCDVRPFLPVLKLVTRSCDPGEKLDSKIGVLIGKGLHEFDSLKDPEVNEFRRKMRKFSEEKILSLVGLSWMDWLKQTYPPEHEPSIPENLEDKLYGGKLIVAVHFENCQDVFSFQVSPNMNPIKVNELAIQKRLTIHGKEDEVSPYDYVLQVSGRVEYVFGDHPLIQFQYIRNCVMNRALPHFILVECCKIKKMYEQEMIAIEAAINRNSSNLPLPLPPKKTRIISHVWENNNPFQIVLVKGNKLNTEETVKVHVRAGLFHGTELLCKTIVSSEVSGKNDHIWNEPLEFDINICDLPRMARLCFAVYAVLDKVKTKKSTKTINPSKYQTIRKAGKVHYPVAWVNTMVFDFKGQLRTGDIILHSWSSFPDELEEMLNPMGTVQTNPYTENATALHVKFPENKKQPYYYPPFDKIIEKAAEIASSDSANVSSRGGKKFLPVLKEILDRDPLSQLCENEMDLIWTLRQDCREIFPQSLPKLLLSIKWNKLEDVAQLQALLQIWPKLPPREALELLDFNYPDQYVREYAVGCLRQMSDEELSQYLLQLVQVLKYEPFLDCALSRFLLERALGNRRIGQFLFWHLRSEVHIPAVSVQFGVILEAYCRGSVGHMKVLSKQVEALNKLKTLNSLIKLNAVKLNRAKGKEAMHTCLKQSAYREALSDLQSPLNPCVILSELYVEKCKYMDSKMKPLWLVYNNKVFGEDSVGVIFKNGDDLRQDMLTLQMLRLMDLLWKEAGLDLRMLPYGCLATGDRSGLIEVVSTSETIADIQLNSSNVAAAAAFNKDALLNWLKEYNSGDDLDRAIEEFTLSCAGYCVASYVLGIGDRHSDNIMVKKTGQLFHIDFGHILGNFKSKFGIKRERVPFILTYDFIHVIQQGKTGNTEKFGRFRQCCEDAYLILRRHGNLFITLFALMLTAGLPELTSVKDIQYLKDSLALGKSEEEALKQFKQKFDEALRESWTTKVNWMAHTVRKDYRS

Row | SMILES | IC50 [1] | further results
1 | COc1cccc(Nc2nc(N3CCN(CCO)CC3)nc3c2cnn3C)c1 [ETP-8162] | 12.6 µM | 
2 | Cn1ncc2c(=O)[nH]c(N3CCOCC3)nc21 [ETP-45700, 6] | > 50 µM | 
3 | CC(C)Oc1nc(N2CCOCC2)nc2c1cnn2C [ETP-45797, 7] | 16.1 µM | 
4 | COc1cccc(Nc2nc(N3CCN(C)CC3)nc3c2cnn3C)c1 [ETP-7146] | 9.2 µM | 
5 | Cn1ncc2c(N3CCOCC3)nc(-c3cccc(O)c3)nc21 [ETP-45658, 13] |  | IC50 [2]: 0.129 µM; IC50 [3]: 0.03 µM; IC50 [4]: 0.717 µM
6 | CN1CCN(c2nc(Nc3cccc(Cl)c3)c3cnn(C)c3n2)CC1 [ETP-5935] | 4.9 µM | 
7 | CC1CN(c2nc(Nc3ccccc3)c3cnn(C)c3n2)CC(C)O1 (stereo unspecified) [ETP-6531] | 12.6 µM | 
8 | Cn1ncc2c(SCc3ccccc3)nc(N3CCOCC3)nc21 [ETP-45654, 3c] | > 50 µM | 
9 | Cn1ncc2c(OCc3ccccc3)nc(N3CCOCC3)nc21 [ETP-45415, 3a] | 35.1 µM | 
10 | Cn1ncc2c(NCc3ccccc3)nc(N3CCOCC3)nc21 [ETP-45416, 3b] | 36.8 µM | 

Second part, led by results:

Row | IC50 [1] | SMILES | further results
11 | 5.8 µM | COc1cccc(-c2nc(N3CCOCC3)c3cnn(C)c3n2)c1 [ETP-45871, 15] | 
12 | 0.114 µM | Cn1ncc2c(-c3cccc(O)c3)nc(N3CCOCC3)nc21 [ETP-45798, 9] | 
13 | 5.51 µM | Cn1ncc2c(Oc3ccc(Cl)cc3)nc(N3CCOCC3)nc21 [ETP-45419, 3d] | 
14 | 0.84 µM | COC(=O)c1cccc(-c2nc(N3CCOCC3)c3cnn(C)c3n2)c1 [ETP-45867, 14] | 
15 | 3.53 µM | CSc1cccc(-c2nc(N3CCOCC3)c3cnn(C)c3n2)c1 [ETP-45875, 16] | 
16 | 0.4 µM | COc1cccc(Nc2nc(N3CCOCC3)nc3c2cnn3C)c1 | 
17 | 7 µM | CC(=O)Nc1cccc(-c2nc(N3CCOCC3)c3cnn(C)c3n2)c1 [ETP-45876, 17] | 
18 | 1.66 µM | Cn1ncc2c(-c3cccc(NS(C)(=O)=O)c3)nc(N3CCOCC3)nc21 [ETP-45799, 10] | 
19 | 0.97 µM | Cc1cccc(Oc2nc(N3CCOCC3)nc3c2cnn3C)c1 [ETP-45874, 11] | 
